Results taken from US20160075653A1, “NEMATICIDAL N-(PHENYLCYCLOALKYL)CARBOXAMIDES AND N-(PHENYLCYCLOALKYL)THIOCARBOXAMIDES” (BAYER CROPSCIENCE AKTIENGESELLSCHAFT, priority 2013, published 2016).

assay: Measurement of log P values by HPLC on reversed phase columns (methods [a] pH 2.3, [b] pH 2.7, [c] pH 7.8); assay type: physicochemical; conditions: HPLC on reversed phase column, method [b], pH 2.7
Description: Measurement of log P-Values:
Measurement of log P Values was Performed According EEC Directive 79/831 Annex V.A8 by HPLC (High Performance Liquid
Chromatography) on reversed phase columns with the following methods: ^[a] Measurement was done at pH 2.3 with 0.1% phosphoric acid and acetonitrile as eluent with a linear gradient from 10% acetonitrile to 95% acetonitrile. ^[b] measurement of LC-MS was done at pH 2.7 with 0.1% formic acid in water and with acetonitrile (contains 0.1% formic acid) as eluent with a linear gradient from 10% acetonitrile to 95% acetonitrile. ^[c] Measurement with LC-MS was done at pH 7.8 with 0.001 molar ammonium hydrogen carbonate solution in water as eluent with a linear gradient from 10% acetonitrile to 95% acetonitrile.
Calibration was done with linear alkan-2-ones (with 3 to 16 carbon atoms) with known log P-values (measurement of log P values using retention times with linear interpolation between successive alkanones). Lambda-max-values were determined using UV-spectra from 200 nm to 400 nm and the peak values of the chromatographic signals.

| logP | SMILES |
| --- | --- |
| 3.58^[b] | Cc1nc(C(F)(F)F)c(C(=O)N[C@@H]2CC[C@@H]2c2ccc(Cl)cc2Cl)s1 (relative stereo) [Example 669] |
| 2.99^[b] | Cn1cc(C(=O)N[C@@H]2CC[C@H]2c2cccc(F)c2C(F)(F)F)c(C(F)F)n1 (relative stereo) [Example 644] |
| 3.65^[b] | O=C(N[C@@H]1CC[C@@H]1c1cccc(F)c1C(F)(F)F)c1sccc1I (relative stereo) [Example 628] |
| 4.10^[b] | O=C(N[C@@H]1CC[C@H]1c1cccc(F)c1C(F)(F)F)c1ncc(C(F)(F)F)cc1Cl (relative stereo) [Example 602] |
| 2.49^[b] | CC1=C(C(=O)NC2CCC2c2ccccc2C(F)(F)F)S(=O)(=O)CCO1 (stereo not drawn) [Example 606] |
| 3.43^[b] | O=C(N[C@@H]1CC[C@H]1c1ccc(Cl)cc1Cl)c1nccnc1Cl (relative stereo) [Example 675] |

| SMILES | logP |
| --- | --- |
| O=C(N[C@@H]1CC[C@H]1c1cccc(F)c1C(F)(F)F)c1ccccc1Cl (relative stereo) [Compound 598] | 3.50^[b] |

same assay, conditions: HPLC on reversed phase column, method [c], pH 7.8

| logP | SMILES |
| --- | --- |
| 2.45^[c]; | CC1=C(C(=O)NC2CCC2c2ccccc2C(F)(F)F)S(=O)(=O)CCO1 (stereo not drawn) [Example 606] |

same assay, conditions: HPLC on reversed phase columns, method [b], pH 2.7

| SMILES | logP |
| --- | --- |
| Cc1ncccc1C(=O)N[C@@H]1CCC[C@@H]1c1ccc(F)c(F)c1 (relative stereo) [Example 62] | 1.67^[b] |
| Cc1nc(C(F)(F)F)c(C(=O)NC2CC2c2ccc(Cl)cc2)s1 (stereo not drawn) [Example 28] | 4.35^[b] |
| CCn1nc(C)c(C(=O)N[C@@H]2CCC[C@@H]2c2ccc(F)c(F)c2)c1F (relative stereo) [Example 84] | 2.92^[b] |
| Cn1cc(C(=O)NC2CC2c2ccccc2)c(C(F)(F)F)n1 (stereo not drawn) [Example 4] | 2.34^[b] |
| Cc1ncccc1C(=O)N[C@@H]1CCC[C@H]1c1ccc(F)c(F)c1 (relative stereo) [Example 63] | 1.75^[b] |
| Cn1nc(C(F)(F)F)c(C(=O)N[C@@H]2CCC[C@@H]2c2ccc(F)c(F)c2)c1F (relative stereo) [Example 122] | 3.27^[b] |
| Cc1ccsc1C(=O)N[C@@H]1CCC[C@@H]1c1ccc(F)c(F)c1 (relative stereo) [Example 70] | 3.39^[b] |
| O=C(NC1CC1c1ccc(Cl)cc1)c1ccc(Cl)nc1 (stereo not drawn) [Example 31] | 3.53^[b] |
| COc1c(C(=O)N[C@@H]2CCC[C@@H]2c2ccc(F)c(F)c2)c(C)nn1C (relative stereo) [Example 116] | 2.59^[b] |
| CC(C)Oc1nn(C)cc1C(=O)N[C@@H]1CCC[C@@H]1c1ccc(F)c(F)c1 (relative stereo) [Example 118] | 3.27^[b] |
| Cc1ccc(C(=O)N[C@@H]2CCC[C@@H]2c2ccc(F)c(F)c2)c(Cl)n1 (relative stereo) [Example 117] | 2.86^[b] |
| Cc1nn(C)c(C)c1C(=O)NC1CC1c1ccc(F)cc1 (stereo not drawn) [Example 15] | 2.84^[b] |
| Cc1nc(Br)sc1C(=O)N[C@@H]1CCC[C@@H]1c1ccc(F)c(F)c1 (relative stereo) [Example 123] | 3.46^[b] |
| Cn1cc(C(=O)N[C@@H]2CCC[C@@H]2c2ccc(F)c(F)c2)c(C(F)F)n1 (relative stereo) [Example 52] | 2.64^[b] |
| O=C(N[C@@H]1CCC[C@@H]1c1ccc(F)c(F)c1)c1ccccc1F (relative stereo) [Example 66] | 3.33^[b] |
| O=C(N[C@@H]1CCC[C@@H]1c1ccc(F)c(F)c1)c1ccccc1OC(F)(F)F (relative stereo) [Example 95] | 3.76^[b] |

Results, then the compound that gave them:

| logP | SMILES |
| --- | --- |
| 3.87^[b] | O=C(NC1CCC1c1c(Cl)cccc1Cl)c1cccc(Cl)c1 (stereo not drawn) [Example 729] |
| 3.33^[b] | O=C(NC1CCC1c1c(Cl)cccc1Cl)c1c(F)cccc1F (stereo not drawn) [Example 727] |

same assay, conditions: HPLC reversed phase, method [b] (pH 2.7)

| SMILES | logP |
| --- | --- |
| O=C(NC1CCC1c1ccc(F)cc1C(F)(F)F)c1ncccc1Cl (stereo not drawn) [Compound 478] | 3.39^[b] |
| O=C(N[C@@H]1CC[C@H]1c1ccc(F)cc1C(F)(F)F)c1ccccc1I (relative stereo) [Compound 502] | 3.76^[b] |
| CC(C)Oc1ccc([C@H]2CCC[C@H]2NC(=O)c2ccccc2C(F)(F)F)cc1 (relative stereo) [Example 325] | 3.90^[b] |
| O=C(N[C@@H]1CC[C@@H]1c1c(F)cccc1F)c1ncccc1Cl (relative stereo) [Compound 438] | 2.73^[b] |
| O=C(N[C@@H]1CC[C@H]1c1ccc(Cl)cc1Cl)c1ccccc1I (relative stereo) [Example 264] | 4.09^[b] |
| Cc1nn(C)cc1C(=O)NC1CCCC1c1ccccc1Cl (stereo not drawn) [Example 292] | 2.24^[b] |
| O=C(N[C@@H]1CC[C@@H]1c1ccc(Cl)cc1Cl)c1ncc(C(F)(F)F)cc1Cl (relative stereo) [Example 259] | 4.23^[b] |
| O=C(NC1CCCC1c1ccc(Cl)cc1)c1ccccc1C(F)(F)F (stereo not drawn) [Example 279] | 3.64^[b] |
| O=C(N[C@@H]1CC[C@@H]1c1ccccc1Cl)c1ccc(Cl)cc1Cl (relative stereo) [Example 249] | 3.65^[b] |
| O=C(N[C@@H]1CCC[C@@H]1c1ccc(C(F)(F)F)cc1)c1cccnc1 (relative stereo) [Example 298] | 2.46^[b] |
| O=C(N[C@@H]1CCC[C@@H]1c1ccccc1F)c1nccnc1C(F)(F)F (relative stereo) [Example 341] | 3.00^[b] |
| O=C(NC1CCC1c1ccc(Cl)cc1Cl)c1cccnc1C(F)(F)F (stereo not drawn) [Example 470] | 3.45^[b] |
| O=C(NC1CCC1c1ccccc1C(F)(F)F)c1ncccc1Cl (stereo not drawn) [Example 458] | 3.22^[b] |
| O=C(NC1CCCC1c1ccccc1Br)c1ccccc1I (stereo not drawn) [Example 357] | 3.67^[b] |

Next, values leading:

| logP | SMILES |
| --- | --- |
| 3.33^[b] | O=C(NC1CCCCC1c1ccccc1C(F)(F)F)c1cccnc1Cl (stereo not drawn) [Example 387] |
| 3.94^[b] | O=C(N[C@@H]1CC[C@H]1c1ccc(F)cc1C(F)(F)F)c1ccc(Cl)cc1 (relative stereo) [Example 507] |
| 3.87^[b] | O=C(NC1CCC1c1ccc(Cl)cc1Cl)c1cccc(Cl)c1 (stereo not drawn) [Example 457] |
| 2.64^[b] | Cc1nn(C)cc1C(=O)NC1CCCCC1c1ccccc1Cl (stereo not drawn) [Example 377] |
| 4.23^[b] | O=C(NC1CCC1c1ccc(F)cc1C(F)(F)F)c1ncc(C(F)(F)F)cc1Cl (stereo not drawn) [Example 480] |
| 2.74^[b] | Cc1nn(C)cc1C(=O)NC1CCCCC1c1ccccc1Br (stereo not drawn) [Example 402] |
| 2.90^[b] | O=C(NC1CC1c1ccc(Cl)cc1)c1ccccc1C(F)F (stereo not drawn) [Example 459] |
| 3.80^[b] | O=C(NC1CCCCC1c1ccccc1C(F)(F)F)c1c(F)cccc1F (stereo not drawn) [Example 386] |
| 3.76^[b] | O=C(NC1CCCCC1c1ccc(Cl)cc1Cl)c1cccnc1Cl (stereo not drawn) [Example 408] |
| 2.59^[b] | O=C(NC1CC1c1ccc(Cl)cc1)c1ccccc1[N+](=O)[O-] (stereo not drawn) [Example 467] |
| 3.16^[b] | Cc1nc(C)c(C(=O)NC2CCCCC2c2c(F)cccc2F)s1 (stereo not drawn) [Example 394] |

same assay, conditions: HPLC reversed phase, method [c] pH 7.8

| SMILES | logP |
| --- | --- |
| CC(C)Oc1ccc([C@H]2CCC[C@H]2NC(=O)c2ccccc2C(F)(F)F)cc1 (relative stereo) [Example 325] | 3.84^[c]; |
| O=C(N[C@@H]1CCC[C@@H]1c1ccc(C(F)(F)F)cc1)c1cccnc1 (relative stereo) [Example 298] | 2.46^[c]; |
| O=C(N[C@@H]1CCC[C@@H]1c1ccccc1F)c1nccnc1C(F)(F)F (relative stereo) [Example 341] | 2.94^[c]; |

More lines, now with the values ahead:

| logP | SMILES |
| --- | --- |
| 2.88^[c]; | O=C(NC1CC1c1ccc(Cl)cc1)c1ccccc1C(F)F (stereo not drawn) [Example 459] |
| 2.45^[c]; | O=C(NC1CC1c1ccc(Cl)cc1)c1ccccc1[N+](=O)[O-] (stereo not drawn) [Example 467] |

same assay, conditions: method [b], HPLC reversed phase, pH 2.7

| logP | SMILES |
| --- | --- |
| 3.13^[b] | CCOc1nn(C)cc1C(=O)N[C@@H]1CCC[C@H]1c1ccc(F)c(F)c1 (relative stereo) [Example 127] |
| 5.39^[b] | Cc1cc(C(=O)N(C2CC2)C2CCCC2c2ccc(Cl)cc2Cl)c(C)o1 (stereo not drawn) [Example 175] |
| 3.27^[b] | O=C(NC1CC1c1ccc(Cl)cc1)c1ccccc1C(F)(F)F (stereo not drawn) [Example 201] |
| 2.61^[b] | Cn1nc(C(F)F)c(C(=O)NC2CC2c2ccc(Cl)cc2)c1F (stereo not drawn) [Example 179] |
| 3.42^[b] | Cc1nc(C(F)(F)F)c(C(=O)N[C@@H]2CCC[C@H]2c2ccc(F)c(F)c2)s1 (relative stereo) [Example 128] |
| 4.85^[b] | Cc1nc(C(F)F)c(C(=O)N(C2CC2)C2CCCC2c2ccc(Cl)cc2Cl)s1 (stereo not drawn) [Example 173] |
| 3.96^[b] | O=C(NC1CCC1c1ccccc1Cl)c1ncc(C(F)(F)F)cc1Cl (stereo not drawn) [Example 237] |
| 3.39^[b] | O=C(N[C@@H]1CCC[C@H]1c1ccc(F)c(F)c1)C1=C(C(F)(F)F)OCCS1 (relative stereo) [Example 130] |
| 3.57^[b] | O=C(NC1CC1c1ccc(Cl)cc1Cl)c1ccccc1Cl (stereo not drawn) [Example 206] |
| 4.39^[b] | CCc1nn(C)c(F)c1C(=O)N(C1CC1)C1CCCCC1c1ccccc1Cl (stereo not drawn) [Example 162] |
| 4.21^[b] | CCc1nn(C)c(F)c1C(=O)N(C1CC1)C1CCCC1c1ccccc1Cl (stereo not drawn) [Example 172] |

same assay, conditions: method [c], HPLC reversed phase, pH 7.8

| logP | SMILES |
| --- | --- |
| 3.21^[c]; | O=C(NC1CC1c1ccc(Cl)cc1)c1ccccc1C(F)(F)F (stereo not drawn) [Example 201] |
| 3.47^[c]; | O=C(NC1CC1c1ccc(Cl)cc1Cl)c1ccccc1Cl (stereo not drawn) [Example 206] |

same assay, conditions: reversed phase HPLC columns, pH 2.7, HPLC on reversed phase columns, method [b] (pH 2.7); read-out: logP

| chromatographic logP | SMILES |
| --- | --- |
| 3.2 | O=C(N[C@@H]1CCC[C@@H]1c1ccc(C(F)(F)F)cc1)c1nccnc1Cl [Example 748] |
| 2.74 | O=C(N[C@@H]1CC[C@H]1c1ccc(Cl)cc1C(F)(F)F)c1cccnc1 [Example 732] |
| 3.71 | Cc1nc(C(F)(F)F)c(C(=O)N[C@@H]2CCC[C@@H]2c2ccc(C(F)(F)F)cc2)s1 [Example 747] |
| 2.98 | O=C(N[C@@H]1C[C@]1(F)c1ccc(Cl)cc1)c1ccccc1I [Example 753] |

same assay, conditions: reversed phase HPLC columns, pH 2.7, HPLC reversed phase, method [b] (pH 2.7); read-out: logP

| chromatographic logP | SMILES |
| --- | --- |
| 2.83 | O=C(NC1CCCC1c1ccc(Cl)cc1)c1cccnc1C(F)(F)F (stereo not drawn) [Example 283] |
| 4.4 | O=C(N[C@@H]1CC[C@H]1c1ccc(Cl)cc1Cl)c1cccc(Cl)c1 [Example 454] |
